Results from patent US11220504B2, “Pyrrolo[3,2-d] pyrimidine derivatives for the treatment of viral infections and other diseases” (JANSSEN SCIENCES IRELAND UNLIMITED COMPANY, priority 2012, dated 2022).

What was measured:
[1] = biological target: T1, human TLR7 (Homo sapiens, UniProt Q9NYK1); assay: TLR7 cellular reporter assay (HEK293, NFκB-luc); format: cell-based; details: HEK293 cells transfected with CMV-TLR7 and NFκB-luc, 6 hours incubation; lowest effective concentration
T1 construct: expressed in transfected cells; host or cells: HEK293 cells, transient transfection with CMV-TLR7 plasmid and NFκB-luc plasmid
T1 sequence (Q9NYK1 27-1049): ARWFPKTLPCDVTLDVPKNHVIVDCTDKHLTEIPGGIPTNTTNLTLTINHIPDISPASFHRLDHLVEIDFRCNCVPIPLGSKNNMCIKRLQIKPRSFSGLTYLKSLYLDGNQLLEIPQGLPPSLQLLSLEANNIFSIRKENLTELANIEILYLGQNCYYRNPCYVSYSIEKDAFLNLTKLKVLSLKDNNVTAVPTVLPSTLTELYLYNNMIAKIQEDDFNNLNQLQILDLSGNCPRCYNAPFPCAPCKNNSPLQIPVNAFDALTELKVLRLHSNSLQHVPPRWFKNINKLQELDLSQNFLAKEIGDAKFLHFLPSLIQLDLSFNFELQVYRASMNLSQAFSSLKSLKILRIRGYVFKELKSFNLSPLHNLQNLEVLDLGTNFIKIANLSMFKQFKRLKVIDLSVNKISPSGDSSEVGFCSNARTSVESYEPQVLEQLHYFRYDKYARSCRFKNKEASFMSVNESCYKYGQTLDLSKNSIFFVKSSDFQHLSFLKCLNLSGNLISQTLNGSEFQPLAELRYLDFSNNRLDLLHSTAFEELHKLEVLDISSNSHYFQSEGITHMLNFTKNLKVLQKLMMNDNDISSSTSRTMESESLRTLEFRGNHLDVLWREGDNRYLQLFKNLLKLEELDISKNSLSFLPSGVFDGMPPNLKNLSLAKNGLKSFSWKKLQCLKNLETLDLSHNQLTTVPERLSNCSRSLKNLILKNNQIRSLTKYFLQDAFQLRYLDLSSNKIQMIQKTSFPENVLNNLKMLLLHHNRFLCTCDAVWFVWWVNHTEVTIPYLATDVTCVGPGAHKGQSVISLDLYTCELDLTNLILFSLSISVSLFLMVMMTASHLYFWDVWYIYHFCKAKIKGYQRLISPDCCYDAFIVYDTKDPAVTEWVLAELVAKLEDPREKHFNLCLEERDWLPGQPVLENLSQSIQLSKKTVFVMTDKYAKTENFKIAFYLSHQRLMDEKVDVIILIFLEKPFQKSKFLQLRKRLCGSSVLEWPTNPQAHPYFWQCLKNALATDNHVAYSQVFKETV
Protocol: (§1) The ability of compounds to activate human TLR7 and/or TLR8 was assessed in a cellular reporter assay using HEK293 cells transiently transfected with a TLR7 or TLR8 expression vector and NFκB-luc reporter construct.
(§2) Briefly, HEK293 cells were grown in culture medium (DMEM supplemented with 10% FCS and 2 mM Glutamine). […] Thirty microliters of cells were then dispensed into each well in 384-well plates, where 10 μL of compound in 4% DMSO was already present. Following 6 hours incubation at 37° C., 5% CO2, the luciferase activity was determined by adding 15 μL of Steady Lite Plus substrate (Perkin Elmer) to each well and readout performed on a ViewLux ultraHTS microplate imager (Perkin Elmer). Dose response curves were generated from measurements performed in quadruplicates.

[2] = biological target: T2, human TLR8 (Homo sapiens, UniProt Q9NR97); assay: TLR8 cellular reporter assay (HEK293, NFκB-luc); format: cell-based; details: HEK293 cells transfected with CMV-TLR8 and NFκB-luc, 6 hours incubation; lowest effective concentration
T2 construct: expressed in transfected cells; host or cells: HEK293 cells, transient transfection with TLR8 plasmid and NFκB-luc plasmid
T2 sequence (Q9NR97 27-1041): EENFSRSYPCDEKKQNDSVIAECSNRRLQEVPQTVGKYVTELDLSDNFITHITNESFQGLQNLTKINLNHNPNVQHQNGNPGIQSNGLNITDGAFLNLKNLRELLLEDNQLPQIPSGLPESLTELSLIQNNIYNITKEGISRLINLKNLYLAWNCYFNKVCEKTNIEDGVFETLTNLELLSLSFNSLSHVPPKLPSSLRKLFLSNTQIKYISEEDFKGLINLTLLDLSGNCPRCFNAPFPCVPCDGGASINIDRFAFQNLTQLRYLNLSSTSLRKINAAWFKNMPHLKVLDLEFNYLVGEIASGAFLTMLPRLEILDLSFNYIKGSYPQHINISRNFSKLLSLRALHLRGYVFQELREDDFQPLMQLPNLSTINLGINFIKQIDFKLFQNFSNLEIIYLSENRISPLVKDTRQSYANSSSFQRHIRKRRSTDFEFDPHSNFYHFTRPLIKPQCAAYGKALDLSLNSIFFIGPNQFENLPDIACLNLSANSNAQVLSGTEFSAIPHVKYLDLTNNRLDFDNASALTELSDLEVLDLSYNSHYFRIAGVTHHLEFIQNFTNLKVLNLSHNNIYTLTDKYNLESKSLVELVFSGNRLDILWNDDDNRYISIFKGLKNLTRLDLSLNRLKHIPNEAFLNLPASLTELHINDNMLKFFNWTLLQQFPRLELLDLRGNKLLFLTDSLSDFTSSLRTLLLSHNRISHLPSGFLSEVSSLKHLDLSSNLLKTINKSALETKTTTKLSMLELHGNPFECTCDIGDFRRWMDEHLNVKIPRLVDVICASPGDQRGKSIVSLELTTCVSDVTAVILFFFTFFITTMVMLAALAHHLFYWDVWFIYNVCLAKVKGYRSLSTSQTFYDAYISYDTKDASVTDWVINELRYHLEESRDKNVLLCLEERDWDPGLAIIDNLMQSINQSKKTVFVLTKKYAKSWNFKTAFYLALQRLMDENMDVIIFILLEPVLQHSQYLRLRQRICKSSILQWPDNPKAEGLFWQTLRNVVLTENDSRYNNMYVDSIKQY
Protocol: as §1, §2

[3] = tested on: interferon-stimulated responsive elements (ISRE); assay: Activation of ISRE promoter elements by conditioned media from PBMC (HEK-ISREluc); format: cell-based, human; details: conditioned media from PBMC transferred to HEK-ISREluc cells, 24 hours, lowest effective concentration; for minimal effective concentration: Homo sapiens, read-out: PBMC LEC
Protocol: The potential of compounds to induce IFN-I was also evaluated by measuring the activation of interferon-stimulated responsive elements (ISRE) by conditioned media from PBMC. The ISRE element of sequence […] (SEQ. ID NO:1) is highly responsive to the STAT1-STAT2-IRF 9 transcription factor, activated upon binding of IFN-I to their receptor IFNAR (Clontech, PT3372-5W). […] A HEK293 cell line stably transfected with pISRE-Luc (HEK-ISREluc) was established to profile of the conditioned PBMC cell culture media.
Briefly, PBMCs were prepared from buffy coats of at least two donors using a standard Ficoll centrifugation protocol. Isolated PBMCs were resuspended in RPMI medium supplemented with 10% human AB serum and 2×10^5 cells/well were dispensed into 384-well plates containing compounds (70 μL total volume). After overnight incubation, 10 μL of supernatant was transferred to 384-well plates containing 5×10^3 HEK-ISREluc cells/well in 30 μL (plated the day before). Following 24 hours of incubation, activation of the ISRE elements was measured by assaying luciferase activity using 40 μL/well Steady Lite Plus substrate (Perkin Elmer) and measured with ViewLux ultraHTS microplate imager (Perkin Elmer). The stimulating activity of each compound on the HEK-ISREluc cells was reported as LEC value, defined as the compound concentration applied to the PBMCs resulting in a luciferase activity at least two fold above the standard deviation of the assay. The LEC in turn indicates the degree of ISRE activation on transfer of a defined amount of PBMC culture medium. Recombinant interferon α-2a (Roferon-A) was used as a standard control compound.

SMILES	TLR7 LEC [1]	TLR8 LEC [2]	minimal effective concentration [3]	PBMC LEC [3]
CCC[C@@H](CCO)Nc1nc(N)nc2ccn(Cc3ccncc3)c12 [Compound 39]	0.17 µM	>25 µM	0.009 µM	
CCCC[C@@H](CCO)Nc1nc(N)nc2ccn(Cc3ccncc3)c12 [Compound 40]	0.12 µM	24.61 µM	0.004 µM	
CCCCNc1nc(N)nc2ccn(Cc3ccc(OC)cc3)c12 [Compound 41]	0.09 µM	>25 µM	0.11 µM	
CCCCNc1nc(N)nc2ccn(Cc3ccc(F)cc3)c12 [Compound 42]	0.28 µM	>25 µM	0.16 µM	
CCCCNc1nc(N)nc2ccn(Cc3ccccc3F)c12 [Compound 43]	0.11 µM	>25 µM	0.17 µM	
CC(CNc1nc(N)nc2ccn(Cc3ccccc3)c12)C1CC1 (stereo not drawn) [Compound 44]	1.51 µM	>25 µM	2.45 µM	
Nc1nc(NCc2ccoc2)c2c(ccn2Cc2ccccc2)n1 [Compound 45]	19.9 µM	>25 µM	0.74 µM	
CC1CC1CNc1nc(N)nc2ccn(Cc3ccccc3)c12 (stereo not drawn) [Compound 46]	0.83 µM	>25 µM	0.17 µM	
CC(C)=CCNc1nc(N)nc2ccn(Cc3ccccc3)c12 [Compound 47]	17.5 µM	>25 µM	1.79 µM	
Cc1cc(CNc2nc(N)nc3ccn(Cc4ccccc4)c23)no1 [Compound 48]	0.05 µM	>25 µM	0.03 µM	
Cn1ccc(CNc2nc(N)nc3ccn(Cc4ccccc4)c23)n1 [Compound 49]	22.43 µM	>25 µM	2.34 µM	
CCCCNc1nc(N)nc2ccn(Cc3cc4ccccc4cn3)c12 [Compound 50]	1.01 µM	>25 µM	0.13 µM	
CC(C)CCNc1nc(N)nc2ccn(Cc3ccccc3)c12 [Compound 51]	5.14 µM	>25 µM	0.59 µM	
CCCCNc1nc(N)nc2ccn(CC3CCCCC3)c12 [Compound 52]	0.12 µM	>25 µM	0.09 µM	
CCCCNc1nc(N)nc2ccn(CC3CC3)c12 [Compound 53]	0.38 µM	>25 µM	0.07 µM	
CCCCNc1nc(N)nc2c(C)cn(Cc3ccccc3)c12 [Compound 54]	1.68 µM	>25 µM	0.9 µM	
CCCCNc1nc(N)nc2ccn(Cc3ncccn3)c12 [Compound 56]	0.99 µM	17.5 µM	0.07 µM	
CCCCNc1nc(N)nc2c(C)cn(Cc3ccccc3)c12 [Compound 58]	0.24 µM	>25 µM		0.90 µM
Nc1nc(NCc2nccs2)c2c(ccn2Cc2ccccc2)n1 [Compound 60]	0.39 µM	>25 µM	0.33 µM	
Nc1nc(NCc2ccccn2)c2c(ccn2Cc2ccccc2)n1 [Compound 61]	1.01 µM	>25 µM	1.95 µM	
CCCCNc1nc(N)nc2ccn(CC3CCC3)c12 [Compound 62]	0.06 µM	0.9934 µM	0.06 µM	
CCCCNc1nc(N)nc2cc(C)n(Cc3ccccc3)c12 [Compound 63]	0.67 µM	>25 µM	0.18 µM	
CCCCNc1nc(N)nc2ccn(Cc3nccc4ccccc34)c12 [Compound 65]	0.1687 µM	>25 µM	0.08 µM	
CCCCNc1nc(N)nc2ccn(CCn3cccc3)c12 [Compound 66]	2.57 µM	3.96 µM	0.91 µM	
CCCCNc1nc(N)nc2ccn(CCN3CCOCC3)c12 [Compound 67]	0.056 µM	6.71 µM	0.04 µM	
CCCCNc1nc(N)nc2ccn(Cc3ccccc3OC)c12 [Compound 69]	0.004 µM	0.71 µM	0.002 µM	
CCCCNc1nc(N)nc2ccn(CC3CCCO3)c12 (stereo not drawn) [Compound 71]	0.32 µM	4.68 µM	0.24 µM	
CCCCNc1nc(N)nc2ccn(Cc3cccs3)c12 [Compound 73]	0.28 µM	>25 µM	0.13 µM	
